This passage reports IC50 results from paper PMC2770649 (Nucleic Acids Research, 2009).

pIC50: −log10 of the molar value.

The target in assay [1] is T1, human DNA pol ι (Homo sapiens, UniProt Q9UNA4).
T1 sequence (Q9UNA4 1-740): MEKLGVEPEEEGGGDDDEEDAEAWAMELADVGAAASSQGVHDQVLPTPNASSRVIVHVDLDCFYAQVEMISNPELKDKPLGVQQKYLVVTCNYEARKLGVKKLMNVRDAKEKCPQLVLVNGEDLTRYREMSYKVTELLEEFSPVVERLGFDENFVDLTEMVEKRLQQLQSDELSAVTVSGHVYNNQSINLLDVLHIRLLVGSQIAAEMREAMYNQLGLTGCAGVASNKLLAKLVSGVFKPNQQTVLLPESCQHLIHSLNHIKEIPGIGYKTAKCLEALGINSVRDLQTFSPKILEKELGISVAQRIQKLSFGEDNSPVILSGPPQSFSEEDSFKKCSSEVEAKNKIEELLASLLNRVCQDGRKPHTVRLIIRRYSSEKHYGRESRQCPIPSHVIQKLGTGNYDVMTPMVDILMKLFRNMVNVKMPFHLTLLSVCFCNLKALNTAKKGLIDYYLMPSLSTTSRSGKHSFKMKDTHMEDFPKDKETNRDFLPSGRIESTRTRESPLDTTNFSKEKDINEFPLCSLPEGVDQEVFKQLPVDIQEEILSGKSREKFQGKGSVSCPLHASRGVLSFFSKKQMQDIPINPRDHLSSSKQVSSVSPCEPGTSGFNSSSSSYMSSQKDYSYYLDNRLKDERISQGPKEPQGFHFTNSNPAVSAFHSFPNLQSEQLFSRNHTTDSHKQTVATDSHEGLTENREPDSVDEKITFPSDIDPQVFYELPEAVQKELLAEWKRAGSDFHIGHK
The assay can be described thus: Reporter-strand displacement assay, 1536-well format, pol ι. Format: biochemical. To be noted: IC50 against pol ι, approximate value.

The target in assay [2] is human DNA pol β (Homo sapiens, UniProt P06746). Nature of the assay: Reporter-strand displacement assay, 1536-well format, pol β. The class given is biochemical. Conditions: IC50 against pol β, approximate value.

A word on the pIC50: it is −log10 of the IC50, conventionally taken in molar units. Low values mean a high IC50, high ones a low IC50.

Turning to `O=C(O)C1=CC(=C(c2ccc(O)c(C(=O)O)c2)c2ccc(O)c(C(=O)O)c2)C=CC1=O` [Aurintricarboxylic acid], the values for the negative logarithm of the IC50 (pIC50) in assay [1] and in assay [2] were approximately 7.05 and approximately 7.70, respectively.
The corresponding values for `O=c1oc2c(O)c(O)cc3c(=O)oc4c(O)c(O)cc1c4c23` [Ellagic acid] are approximately 7.05 and approximately 7.70.
